Experimental data as given in paper PMC4042160, “In silico, in vitro and cellular analysis with a kinome-wide inhibitor panel correlates cellular LRRK2 dephosphorylation to inhibitor activity on LRRK2” (Frontiers in Molecular Neuroscience, 2014).

How the values were obtained:
LRRK2 phospho-Ser935 = molecular target: T1, LRRK2 phospho-Ser935 (Homo sapiens, UniProt Q5S007); assay: Cellular LRRK2 phosphoserine 935 dephosphorylation spotblot assay in SH-SY5Y cells stably expressing 3xFlag-LRRK2; format: cell-based; settings: for Phosphorylation level relative to solvent (%) (cellular pS935 assay): @ 5 μM for 2 h, SH-SY5Y stably expressing LRRK2, pS935/total LRRK2; for Cellular pS935 (% @ 5 μM): pS935 level as % of control, 5 μM for 2 h; for Cellular pS935 (% @ 5 μM) / IC50 / pIC50 cellular (pS935): SH-SY5Y cells with stable expression of LRRK2; for IC50 / pIC50 cellular (pS935): pS935 dephosphorylation; for IC50: read-out: IC50 cellular (pS935)
T1 construct: expressed in transfected cells
T1 sequence (Q5S007 whole entry): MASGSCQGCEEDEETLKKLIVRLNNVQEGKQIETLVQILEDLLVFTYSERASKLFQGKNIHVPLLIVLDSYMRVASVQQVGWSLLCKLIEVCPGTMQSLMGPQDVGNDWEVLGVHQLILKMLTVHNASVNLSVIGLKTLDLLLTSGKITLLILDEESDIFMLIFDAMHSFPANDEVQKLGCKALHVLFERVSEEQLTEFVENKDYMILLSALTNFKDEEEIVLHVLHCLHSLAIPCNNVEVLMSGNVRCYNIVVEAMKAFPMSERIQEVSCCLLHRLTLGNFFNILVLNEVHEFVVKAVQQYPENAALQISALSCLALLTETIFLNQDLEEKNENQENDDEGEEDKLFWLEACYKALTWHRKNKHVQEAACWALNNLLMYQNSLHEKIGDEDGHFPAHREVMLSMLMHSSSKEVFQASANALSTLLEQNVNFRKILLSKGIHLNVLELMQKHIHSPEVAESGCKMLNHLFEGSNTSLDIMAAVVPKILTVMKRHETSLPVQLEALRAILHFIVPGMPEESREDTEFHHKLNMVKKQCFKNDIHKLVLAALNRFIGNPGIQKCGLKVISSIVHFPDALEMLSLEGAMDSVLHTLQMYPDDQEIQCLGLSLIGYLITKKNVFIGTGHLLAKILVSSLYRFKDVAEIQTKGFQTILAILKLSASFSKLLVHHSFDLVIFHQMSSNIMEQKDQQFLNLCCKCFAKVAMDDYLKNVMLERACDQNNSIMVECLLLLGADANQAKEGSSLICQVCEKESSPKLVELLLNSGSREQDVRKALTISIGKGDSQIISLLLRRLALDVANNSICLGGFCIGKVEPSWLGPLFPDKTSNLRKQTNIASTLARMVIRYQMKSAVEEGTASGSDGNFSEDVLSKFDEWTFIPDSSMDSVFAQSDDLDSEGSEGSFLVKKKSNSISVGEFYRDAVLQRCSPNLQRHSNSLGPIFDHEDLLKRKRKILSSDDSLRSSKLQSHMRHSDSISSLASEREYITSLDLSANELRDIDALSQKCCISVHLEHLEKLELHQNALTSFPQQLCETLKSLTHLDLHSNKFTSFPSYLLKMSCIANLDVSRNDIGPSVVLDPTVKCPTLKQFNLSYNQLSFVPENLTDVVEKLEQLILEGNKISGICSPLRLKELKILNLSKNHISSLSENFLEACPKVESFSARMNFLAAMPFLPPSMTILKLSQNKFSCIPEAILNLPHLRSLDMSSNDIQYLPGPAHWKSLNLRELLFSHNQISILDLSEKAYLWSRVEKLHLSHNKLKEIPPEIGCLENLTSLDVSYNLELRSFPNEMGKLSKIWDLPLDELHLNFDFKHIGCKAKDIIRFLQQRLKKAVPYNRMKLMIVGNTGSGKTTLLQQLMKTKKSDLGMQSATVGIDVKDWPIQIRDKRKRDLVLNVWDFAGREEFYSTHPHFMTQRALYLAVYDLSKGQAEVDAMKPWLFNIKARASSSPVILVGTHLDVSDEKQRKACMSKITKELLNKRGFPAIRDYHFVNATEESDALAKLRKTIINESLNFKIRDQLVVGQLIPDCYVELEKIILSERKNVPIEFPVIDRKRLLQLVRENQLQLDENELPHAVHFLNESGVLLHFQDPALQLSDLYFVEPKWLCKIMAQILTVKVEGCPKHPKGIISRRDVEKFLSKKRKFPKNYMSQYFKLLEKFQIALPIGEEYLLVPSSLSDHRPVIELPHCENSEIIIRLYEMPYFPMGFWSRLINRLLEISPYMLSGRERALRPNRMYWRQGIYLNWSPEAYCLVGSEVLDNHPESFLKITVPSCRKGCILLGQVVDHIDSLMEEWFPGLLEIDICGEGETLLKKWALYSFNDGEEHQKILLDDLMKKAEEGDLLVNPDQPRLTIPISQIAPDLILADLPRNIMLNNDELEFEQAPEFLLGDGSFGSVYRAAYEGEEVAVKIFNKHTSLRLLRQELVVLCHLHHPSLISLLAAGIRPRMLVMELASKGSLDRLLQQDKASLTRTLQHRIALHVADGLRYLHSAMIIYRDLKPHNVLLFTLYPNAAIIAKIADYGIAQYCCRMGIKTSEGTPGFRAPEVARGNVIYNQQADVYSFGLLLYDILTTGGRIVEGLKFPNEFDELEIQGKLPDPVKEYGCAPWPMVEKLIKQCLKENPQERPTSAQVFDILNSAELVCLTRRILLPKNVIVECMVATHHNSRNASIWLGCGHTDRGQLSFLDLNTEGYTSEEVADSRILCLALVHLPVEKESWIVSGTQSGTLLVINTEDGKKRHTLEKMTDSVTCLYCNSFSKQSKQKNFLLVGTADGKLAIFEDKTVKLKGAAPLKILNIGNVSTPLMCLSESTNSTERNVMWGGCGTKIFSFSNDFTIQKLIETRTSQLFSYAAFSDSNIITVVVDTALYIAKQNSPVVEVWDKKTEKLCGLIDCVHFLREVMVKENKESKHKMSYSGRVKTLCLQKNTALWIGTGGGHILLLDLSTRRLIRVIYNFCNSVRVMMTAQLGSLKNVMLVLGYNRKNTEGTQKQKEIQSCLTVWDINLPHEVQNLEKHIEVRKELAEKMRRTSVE

[1] = molecular target: T2, GST-tagged truncated LRRK2 containing residues 970 to 2527 (Homo sapiens, UniProt Q5S007); assay: In vitro LRRKtide peptide-substrate kinase assay, single dose testing (10 μM); format: biochemical; settings: LRRKtide assay @ 10 μM inhibitor; GST-LRRK2 970-2527; 10 μM ATP; mean, N = 3; solvent control = 100%
T2 construct: GST-tagged truncated LRRK2 containing residues 970 to 2527 (Life Technologies); purchased Life Technologies
T2 sequence (Q5S007 970-2527): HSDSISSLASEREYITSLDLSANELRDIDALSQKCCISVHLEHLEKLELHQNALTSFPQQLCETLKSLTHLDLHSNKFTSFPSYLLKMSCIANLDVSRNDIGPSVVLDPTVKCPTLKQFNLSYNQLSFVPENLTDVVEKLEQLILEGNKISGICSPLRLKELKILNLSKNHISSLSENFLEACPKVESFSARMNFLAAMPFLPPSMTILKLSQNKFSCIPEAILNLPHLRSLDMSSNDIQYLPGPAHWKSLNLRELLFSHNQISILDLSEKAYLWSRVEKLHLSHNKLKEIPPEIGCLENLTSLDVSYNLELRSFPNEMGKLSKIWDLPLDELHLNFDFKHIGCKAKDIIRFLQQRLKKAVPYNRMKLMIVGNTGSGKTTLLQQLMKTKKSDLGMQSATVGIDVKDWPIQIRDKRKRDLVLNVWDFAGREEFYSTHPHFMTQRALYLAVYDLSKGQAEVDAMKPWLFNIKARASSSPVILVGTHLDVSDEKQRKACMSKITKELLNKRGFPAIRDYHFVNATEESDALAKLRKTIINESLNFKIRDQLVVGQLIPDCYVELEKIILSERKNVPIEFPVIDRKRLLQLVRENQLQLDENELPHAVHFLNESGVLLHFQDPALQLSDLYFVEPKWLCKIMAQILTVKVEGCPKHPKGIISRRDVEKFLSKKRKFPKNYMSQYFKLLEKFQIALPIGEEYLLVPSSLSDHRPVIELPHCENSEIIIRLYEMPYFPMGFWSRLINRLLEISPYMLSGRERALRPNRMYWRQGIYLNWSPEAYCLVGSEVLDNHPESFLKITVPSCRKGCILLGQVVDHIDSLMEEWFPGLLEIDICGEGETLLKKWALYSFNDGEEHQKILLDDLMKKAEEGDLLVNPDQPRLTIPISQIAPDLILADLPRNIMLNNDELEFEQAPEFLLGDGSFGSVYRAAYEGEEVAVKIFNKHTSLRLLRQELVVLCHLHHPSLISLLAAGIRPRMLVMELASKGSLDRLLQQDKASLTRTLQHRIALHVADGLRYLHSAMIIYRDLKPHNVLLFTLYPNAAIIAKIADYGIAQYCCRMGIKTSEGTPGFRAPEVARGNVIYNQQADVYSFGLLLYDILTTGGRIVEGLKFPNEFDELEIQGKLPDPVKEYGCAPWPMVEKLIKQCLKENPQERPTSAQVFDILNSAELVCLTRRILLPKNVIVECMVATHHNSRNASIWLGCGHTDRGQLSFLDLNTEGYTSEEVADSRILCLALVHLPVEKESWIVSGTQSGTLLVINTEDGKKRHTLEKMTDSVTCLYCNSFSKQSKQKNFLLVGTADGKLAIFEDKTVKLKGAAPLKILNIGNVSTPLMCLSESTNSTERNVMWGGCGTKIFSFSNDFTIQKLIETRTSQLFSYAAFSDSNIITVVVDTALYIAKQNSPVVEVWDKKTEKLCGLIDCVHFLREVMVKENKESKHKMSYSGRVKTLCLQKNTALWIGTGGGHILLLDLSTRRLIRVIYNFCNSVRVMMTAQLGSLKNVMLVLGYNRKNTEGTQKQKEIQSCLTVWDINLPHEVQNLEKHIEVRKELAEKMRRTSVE

[2] = molecular target: T3, full length LRRK2 protein (Homo sapiens, UniProt Q5S007); assay: In vitro LRRKtide kinase assay with full length recombinant LRRK2, dose-response (IC50/pIC50); format: biochemical; settings: LRRKtide phosphorylation, dose-response; for IC50: read-out: IC50 in vitro (lrrktide)
T3 construct: compounds were tested in triplicate with full length LRRK2 protein; made in house
T3 sequence (Q5S007 whole entry): as the sequence (Q5S007 whole entry) above

Compound	Phosphorylation level relative to solvent (%) (cellular pS935 assay) (LRRK2 phospho-Ser935)	Cellular pS935 (% @ 5 μM) (LRRK2 phospho-Ser935)	% LRRKtide phosphorylation relative to solvent [1]	pIC50 in vitro (lrrktide) [2]	IC50 [2]	IC50 (LRRK2 phospho-Ser935)	pIC50 cellular (pS935) (LRRK2 phospho-Ser935)
CC(C)n1cnc2c(Nc3cccc(Cl)c3)nc(NCCO)nc21 [Compound 52]	76.44%	76.44%	7.76%	5.41	3930 nM		
COc1cc2ncnc(N3CCN(C(=O)Nc4ccc(Oc5ccccc5)cc4)CC3)c2cc1OC [PDGF receptor tyrosine kinase inhibitor III]	72.83%	72.83%	55.86%	<5	> 10000 nM		
CCCNC(=O)Nc1ccc(Oc2ncnc3cc(OC)c(OC)cc23)cc1Cl		62.48%		<5	> 10000 nM		
CC(C)[C@H](CO)Nc1nc(Nc2cccc(Cl)c2)c2ncn(C(C)C)c2n1 [Purvalanol A]	121.26%	121.26%	15.64%		4570 nM		
BPIQ-I	88.55%	88.55%	17.30%	5.12	7650 nM		
COc1cc(N2CCOCC2)ccc1Nc1ncc(F)c(Nc2ccccc2NS(C)(=O)=O)n1 [CZC25146]		8.62%		8.75	1.78 nM	43.6 nM	7.36
O=C1Nc2ccc3ncsc3c2/C1=C/c1cnc[nH]1 [PKR inhibitor]	29.00%	29%	1.18%	6.44	363 nM	1310 nM	5.88
CC(=O)O/N=C1/C(=C2/C(=O)Nc3cc(Br)ccc32)Nc2ccccc21 [GSK-3 inhibitor X]	106.06%	106.06%	38.94%	<5	> 10000 nM		
Nc1ccc2ncnc(NCCc3ccc(Oc4ccccc4)cc3)c2c1 [NF-KB activation inhibitor]	65.67%	65.67%	57.28%	<5	> 10000 nM		
CCn1cnc2c(Nc3cccc(Cl)c3)nc(N[C@H]3CCCC[C@H]3N)nc21 [Cdk1 inhibitor. CGP74514A]		83.35%		5.46	3470 nM		
O=C1Nc2ccccc2/C1=C\c1c(Cl)[nH]c2ccccc12 [Cdk1 inhibitor]	78.35%	78.35%	29.84%	<5	> 10000 nM		
COc1cc2ncnc(Nc3ccc(NC(=O)c4ccccc4)cc3)c2cc1OC [Aurora kinase inhibitor II]	69.85%	69.85%	22.60%	<5	> 10000 nM		
COc1cc(OC)c(C=C2C(O)=Nc3ccccc32)c(OC)c1 [IC261]	78.81%	78.81%	89.62%		> 10000 nM		

Continued, in another order:

Phosphorylation level relative to solvent (%) (cellular pS935 assay) (LRRK2 phospho-Ser935)	Cellular pS935 (% @ 5 μM) (LRRK2 phospho-Ser935)	% LRRKtide phosphorylation relative to solvent [1]	pIC50 in vitro (lrrktide) [2]	IC50 [2]	IC50 (LRRK2 phospho-Ser935)	Compound	pIC50 cellular (pS935) (LRRK2 phospho-Ser935)
60.83%	60.83%	26.67%	7.61	24.6 nM		CCOC(=O)c1c(C)[nH]c(/C=C2\C(=O)Nc3ccccc32)c1C [VEGF receptor 2 kinase inhibitor I]	
14.34%	14.34%	4.57%		10 nM	423 nM	CN(C)S(=O)(=O)c1ccc2c(c1)/C(=C/c1cc3c([nH]1)CCCC3)C(=O)N2 [SU6656]	
54.34%	54.34%	19.33%	5.83	1480 nM		CN(C)c1ccc(/C=C2\C(=O)Nc3ccccc32)cc1 [DMBI]	
61.51%	61.51%	27.12%	6.03	936 nM		COc1cc2ncnc(Nc3ccc(Oc4ccccc4)cc3)c2cc1OC [Src kinase inhibitor I]	
94.62%	94.62%	2.99%		2100 nM		COc1ccc2c(c1)/C(=C/c1cnc[nH]1)C(=O)N2 [SU9516]	
52.43%	52.43%	2.05%	7.37	43 nM		Cc1[nH]c(/C=C2\C(=O)Nc3ccc(S(=O)(=O)N(C)c4cccc(Cl)c4)cc32)c(C)c1C(=O)N1CCN(C)CC1 [Met kinase inhibitor]	
86.56%	86.56%	4.52%	5.52	3010 nM		CCOc1cc2ncnc(Nc3cccc(Br)c3)c2cc1OCC [Compound 56]	
75.11%	75.11%	5.72%	5.43	3730 nM		COc1cc2ncnc(Nc3cccc(Cl)c3)c2cc1OC [AG 1478]	
	57.29%		6.20	632 nM		Syk inhibitor	
13.15%	13.15%	0.73%	9.04	0.91 nM	1.18 nM	Nc1nc(Nc2ccc(S(N)(=O)=O)cc2)nn1C(=S)Nc1c(F)cccc1F [Cdk1/2 inhibitor III]	8.93
45.08%	45.08%	2.19%	6.56	273 nM	> 2000 nM	Cc1cc(C)c(/C=C2\C(=O)Nc3ccccc32)[nH]1 [VEGF receptor 2 kinase inhibitor III]	<5.7
121.05%	121.05%	7.36%		2030 nM		CC(C)[C@H](CO)Nc1nc(Nc2cc(N)cc(Cl)c2)c2ncn(C(C)C)c2n1 [Aminopurvalanol A]	
101.13%	101.13%	2.23%	6.16	685 nM		O=C1Nc2ccccc2/C1=C1/Nc2ccccc2/C1=N\OCC(O)CO (stereo not drawn) [Indirubin derivative E804]	
	85.53%		5.75	1790 nM		O=C1Nc2ccccc2/C1=C1/Nc2ccccc2/C1=N\O [Indirubin-3'-monoxime]	
